Measurements published in patent publication US12161722B2, “Bifunctional heterocyclic compound having BTK degradation function via ubiquitin proteasome pathway, and use thereof” (KOREA RESEARCH INSTITUTE OF CHEMICAL TECHNOLOGY, priority 2021, dated 2024).

Legend:
[1] = molecular target: T1, C481S BTK protein (Homo sapiens, UniProt Q06187, C481S); assay: BTK protein degradation assay (Western blotting), C481S BTK; format: cell-based; settings: concentration range accounting for 50% degradation of C481S BTK protein, 293T BTK MUT (C481S) cells
T1 construct: expressed in transfected cells; host or cells: 293T BTK MUT (C481S) cells
Method: TMD-8, RAMOS, or 293T BTK MUT (C481S) cells were treated with the synthesized compounds and measured for intracellular BTK protein levels by Western blotting. The protocol of the experiment using TMD-8 cells is as follows.
The 12-well plates were treated as follows. A 10 mM stock was 1/10 diluted in series with DMSO ([…]) to form final concentrations of 10, 1, 0.1, 0.01, 0.001, and 0.0001 mM. The compounds with such concentrations were applied to cells, followed by harvesting the cells 24 hours later. For a negative control, a 1/10 dilution of DMSO in the medium (3 mL DMSO+27 mL medium) was used.
The 1-mL cell culture in each well was passed many times through a pipette and then transferred into a 1.5-mL microtube before centrifugation (500 g, 5 min, 4° C.). The supernatant was discarded and the cell pellet was washed with PBS. After centrifugation (500 g, 5 min, 4° C.) again, the supernatant was discarded and the cell pellet was taken.
A lysis buffer was prepared as follows. RIPA buffer (Biosesang, RC2038-050-00)+0.5 mM PMSF (SIGMA, P7626)+1×Protease/Phosphatase Inhibitor (Cell signaling, 5872S) was added in an amount […] per well and left for 30 minutes on ice (vortexing at 0 and 30 minutes) before sonication (5 cycles of pulse for 10 seconds and rest for 30 seconds, 70% amplification). The supernatant obtained by centrifugation (15000 g, 15 min, 4° C.) was transferred into a new microtube. Cells in each well of 96-well plates were 1/2 diluted with the RIPA buffer and incubated at 37° C. for 30 minutes with […] of a 50:1 mixture of BCA reagents A and B in BCA Protein Assay Kit (iNtRON, 21071). After being cooled for 10 minutes, the 96-well plates were measured for absorbance at 562 nm on the BioTek, SYNERGY H1 microplate reader. Samples were prepared by protein quantification based on the absorbance measurements and then boiled at 70° C. for 10 minutes. The sample buffer used in the case was prepared by mixing a NuPAGE or a Bolt 4× sample buffer (Invitrogen) and its 10× sample reducing agent depending on the gel to be used, and protein dilution was made in a RIPI buffer.
The samples were loaded in the same amount into a NuPAGE or Bolt Bis-tris 4-12% gradient gel and allowed to run therein (200 V, 35 minutes). The separated proteins were transferred onto a […] NC membrane, using Trans-blot Turbo (BIO-RAD) (1.3 A constant, 25V limit, 15 minutes). The membrane was blocked at room temperature for 1 hour with skim milk or Intercept Blocking Buffer (LI-COR, 927-60001):0.1% TBST=1:1. The membrane was incubated with Anti BTK Rabbit (1:1,000 in 5% skim milk/0.2% TBST, size: 77 kDa, Cell signaling Technology) at 4° C. overnight O/N or at room temperature for 2 hours and with Anti GAPDH Rabbit (1:10,000 in 5% BSA/0.2% TBST, size: 36 kDa, GENETEX) and Anti β-actin mouse (1:10,000 in 5% BSA/0.2% TBST, RT, size: 43 kDa, GENETEX) at room temperature for 1 or 3 hours. Then, the membrane was washed three times with 0.5% TBST for 5 minutes each time before incubation with the second antibody Anti-Rabbit IgG (1:5,000 in 5% Skim milk/TBST, CST), IRDye® 800CW Goat anti-Rabbit IgG Secondary Antibody (1:10,000 in 5% skim/TBST, RT 45 min), or IRDye® 680RD Goat anti-Mouse IgG Secondary Antibody (1:10,000 in 5% skim/TBST, RT 45 min) for 45 minutes at room temperature in a rocker. The membrane was washed five times with 0.5% TBST for 5 minutes in each time, followed by detection with LI-COR, Odyssey. In this regard, the detection proceeded, as it was, for house-keeping genes while using SuperSignal West Pico PLUS Chemiluminescent Substrate or SuperSignal West femto Maximum Sensitivity Substrate for BTK detection.
According to the concentration ranges of compounds accounting for 50% degradation of WT BTK protein and C481S BTK protein, the activities are expressed as +++(0.0001-0.01 μM), ++(0.01-1 μM), +(1-10 μM), −(>10 μM), and NT (not tested). […]

[2] = molecular target: T2, WT BTK protein (Homo sapiens, UniProt Q06187); assay: BTK protein degradation assay (Western blotting), WT BTK; format: cell-based; settings: concentration range accounting for 50% degradation of WT BTK protein, TMD-8 or RAMOS cells, 24 hours
T2 construct: measured for intracellular BTK protein levels by Western blotting; endogenous in cells; host or cells: TMD-8 or RAMOS cells
How it was run: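 BTK levels were read by Western blotting (GAPDH and β-actin normalisers) in RIPA lysates of TMD-8 cells exposed to compounds for 24 h at 1×10^6 cells/mL. Results scored in ranges of the concentration producing 50% loss of WT BTK.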

T1 sequence (Q06187 whole entry C481S): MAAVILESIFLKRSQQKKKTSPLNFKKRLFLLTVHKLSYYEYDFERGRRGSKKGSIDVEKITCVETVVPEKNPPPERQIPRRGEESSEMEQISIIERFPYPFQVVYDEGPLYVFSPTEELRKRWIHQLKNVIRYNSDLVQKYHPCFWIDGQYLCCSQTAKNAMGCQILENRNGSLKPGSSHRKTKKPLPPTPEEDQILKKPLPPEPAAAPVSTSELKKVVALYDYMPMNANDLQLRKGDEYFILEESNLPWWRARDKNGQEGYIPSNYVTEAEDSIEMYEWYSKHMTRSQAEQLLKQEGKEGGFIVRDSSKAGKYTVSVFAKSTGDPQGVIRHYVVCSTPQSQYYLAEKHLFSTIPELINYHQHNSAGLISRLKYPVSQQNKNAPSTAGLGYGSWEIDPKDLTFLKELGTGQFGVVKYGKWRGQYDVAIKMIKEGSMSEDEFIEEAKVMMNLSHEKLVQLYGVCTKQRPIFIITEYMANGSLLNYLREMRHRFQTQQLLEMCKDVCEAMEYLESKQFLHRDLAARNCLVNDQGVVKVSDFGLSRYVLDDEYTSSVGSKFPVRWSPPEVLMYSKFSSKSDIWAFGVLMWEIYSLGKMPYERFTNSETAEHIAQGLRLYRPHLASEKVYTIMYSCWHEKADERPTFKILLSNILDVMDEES
T2 sequence (Q06187 whole entry): as the sequence (Q06187 whole entry C481S) above, with S481C counted along it

Row | Structure (SMILES) | DC50 [1] | DC50 [2]
1 | Cc1cccc(C)c1Nc1nn(C)c2nc(Nc3ccc4c(c3)CN(C[C@H]3CCN(c5ccc6c(c5)C(=O)N(C5CCC(=O)NC5=O)C6=O)C3)CC4)ncc12 (stereo partly drawn) [Compound 144, 5-((R)-3-((7-((3-((2,6-dimethylphenyl)amino)-1-methyl-1H-pyrazolo[3,4-d]pyrimidin-6-yl)amino)-3,4-dihydroisoquinolin-2 (1H)-yl)methyl)pyrrolidin-1-yl)-2-(2,6-dioxopiperidin-3-yl)isoindoline-1,3-dione] | 0.1 to 10 nM | 0.1 to 10 nM
2 | Cc1cccc(C)c1Nc1nn(C)c2nc(Nc3ccc4c(c3)CN(CCOCCNC(=O)C3CCN(c5cccc6c5C(=O)N(C5CCC(=O)NC5=O)C6=O)CC3)CC4)ncc12 (stereo not drawn) [Compound 24, N-(2-(2-(7-((3-((2,6-Dimethylphenyl)amino)-1-methyl-1H-pyrazolo[3,4-d]pyrimidin-6-yl)amino)-3,4-dihydroisoquinolin-2 (1H)-yl)ethoxy)ethyl)-1-(2-(2,6-dioxopiperidin-3-yl)-1,3-dioxoisoindolin-4-yl)piperidine-4-carboxamide] | 1000 to 10000 nM | 0.1 to 10 nM
3 | Cc1cccc(C)c1Nc1nn(C)c2nc(Nc3ccc4c(c3)CN(C(=O)COCCOCCOCCOCCNc3ccc5c(c3)C(=O)N(C3CCC(=O)NC3=O)C5=O)CC4)ncc12 (stereo not drawn) [Compound 8, 5-((14-(7-((3-((2,6-Dimethylphenyl)amino)-1-methyl-1H-pyrazolo[3,4-d]pyrimidin-6-yl)amino)-3,4-dihydroisoquinolin-2 (1H)-yl)-14-oxo-3,6,9,12-tetraoxatetradecyl)amino)-2-(2,6-dioxopiperidin-3-yl)isoindoline-1,3-dione] | 10 to 1000 nM | 0.1 to 10 nM
4 | Cc1cccc(C)c1Nc1nn(C)c2nc(Nc3ccc4c(c3)CN(CC3CCN(C(=O)C5CCN(c6ccc7c(c6)C(=O)N(C6CCC(=O)NC6=O)C7=O)CC5)CC3)CC4)ncc12 (stereo not drawn) [Compound 28, 5-(4-(4-((7-((3-((2,6-Dimethylphenyl)amino)-1-methyl-1H-pyrazolo[3,4-d]pyrimidin-6-yl)amino)-3,4-dihydroisoquinolin-2 (1H)-yl)methyl)piperidine-1-carbonyl)piperidin-1-yl)-2-(2,6-dioxopiperidin-3-yl)isoindoline-1,3-dione] | 0.1 to 10 nM | 0.1 to 10 nM
5 | Cc1cccc(C)c1Nc1nn(C)c2nc(Nc3ccc4c(c3)CN(C(=O)[C@H]3CCCN3C(=O)C3CCN(c5ccc6c(c5)C(=O)N(C5CCC(=O)NC5=O)C6=O)CC3)CC4)ncc12 (stereo partly drawn) [Compound 26, 5-(4-((R)-2-(7-((3-((2,6-Dimethylphenyl)amino)-1-methyl-1H-pyrazolo[3,4-d]pyrimidin-6-yl)amino)-1,2,3,4-tetrahydroisoquinoline-2-carbonyl)pyrrolidine-1-carbonyl)piperidin-1-yl)-2-(2,6-dioxopiperidin-3-yl)isoindoline-1,3-dione] | 1000 to 10000 nM | 0.1 to 10 nM
6 | Cc1cccc(C)c1Nc1nn(C)c2nc(Nc3ccc4c(c3)CN(C(=O)COCCOCCNc3cccc5c3C(=O)N(C3CCC(=O)NC3=O)C5=O)CC4)ncc12 (stereo not drawn) [Compound 3, 4-((2-(2-(2-(7-((3-((2,6-Dimethylphenyl)amino)-1-methyl-1H-pyrazolo[3,4-d]pyrimidin-6-yl)amino)-3,4-dihydroisoquinolin-2 (1H)-yl)-2-oxoethoxy)ethoxy)ethyl)amino)-2-(2,6-dioxopiperidin-3-yl)isoindoline-1,3-dione] | 1000 to 10000 nM | 0.1 to 10 nM
7 | Cc1cccc(C)c1Nc1nn(C)c2nc(Nc3ccc4c(c3)CN(C(=O)C3CCN(C(=O)CNc5ccc6nnn(C7CCC(=O)NC7=O)c(=O)c6c5)CC3)CC4)ncc12 (stereo not drawn) [Compound 57] | 10 to 1000 nM | 0.1 to 10 nM
8 | Cc1cccc(C)c1Nc1nn(C)c2nc(Nc3ccc4c(c3)CN(CC3CCN(C(=O)CNc5ccc6c(=O)n(C7CCC(=O)NC7=O)nnc6c5)CC3)CC4)ncc12 (stereo not drawn) [Compound 63, 3-(7-((2-(4-((7-((3-((2,6-Dimethylphenyl)amino)-1-methyl-1H-pyrazolo[3,4-d]pyrimidin-6-yl)amino)-3,4-dihydroisoquinolin-2 (1H)-yl)methyl)piperidin-1-yl)-2-oxoethyl)amino)-4-oxobenzo[d][1,2,3]triazin-3 (4H)-yl)piperidin-2,6-one] | 10 to 1000 nM | 0.1 to 10 nM
9 | Cc1cccc(C)c1Nc1nn(C)c2nc(Nc3ccc4c(c3)CN(CCOCCNC(=O)C3CCN(c5ccc6c(c5)C(=O)N(C5CCC(=O)NC5=O)C6=O)CC3)CC4)ncc12 (stereo not drawn) [Compound 21, N-(2-(2-(7-((3-((2,6-Dimethylphenyl)amino)-1-methyl-1H-pyrazolo[3,4-d]pyrimidin-6-yl)amino)-3,4-dihydroisoquinolin-2 (1H)-yl)ethoxy)ethyl)-1-(2-(2,6-dioxopiperidin-3-yl)-1,3-dioxoisoindolin-5-yl)piperidine-4-carboxamide] | 1000 to 10000 nM | 0.1 to 10 nM
10 | Cc1cccc(C)c1Nc1nn(C)c2nc(Nc3ccc4c(c3)CN(CCOCCNC(=O)CN3CCN(c5ccc6c(c5)C(=O)N(C5CCC(=O)NC5=O)C6=O)CC3)CC4)ncc12 (stereo not drawn) [Compound 20, N-(2-(2-(7-((3-((2,6-Dimethylphenyl)amino)-1-methyl-1H-pyrazolo[3,4-d]pyrimidin-6-yl)amino)-3,4-dihydroisoquinolin-2 (1H)-yl)ethoxy)ethyl)-2-(4-(2-(2,6-dioxopiperidin-3-yl)-1,3-dioxoisoindolin-5-yl)piperazin-1-yl)acetamide] | 1000 to 10000 nM | 0.1 to 10 nM
11 | COCCOc1cc(C)c(Nc2nn(C)c3nc(Nc4ccc5c(c4)C(C)(C)N(C(=O)CCC(=O)Nc4ccc(OCCOCCOCCOCCNc6cccc7c6C(=O)N(C6CCC(=O)NC6=O)C7=O)cc4)CC5)ncc23)c(C)c1 (stereo not drawn) [Compound 6, N-(4-(2-(2-(2-(2-((2-(2,6-Dioxopiperidin-3-yl)-1,3-dioxoisoindolin-4-yl)amino)ethoxy)ethoxy)ethoxy)ethoxy)phenyl)-4-(7-((3-((4-(2-methoxyethoxy)-2,6-dimethylphenyl)amino)-1-methyl-1H-pyrazolo[3,4-d]pyrimidin-6-yl)amino)-1,1-dimethyl-3,4-dihydroisoquinolin-2 (1H)-yl)-4-oxobutanamide] | 10 to 1000 nM | 10 to 1000 nM
12 | Cc1cccc(C)c1Nc1nn(C)c2nc(Nc3ccc4c(c3)CN(Cc3cn(CCOCCOCCNC(=O)CNc5ccc6c(c5)C(=O)N(C5CCC(=O)NC5=O)C6=O)nn3)CC4)ncc12 (stereo not drawn) [Compound 12, N-(2-(2-(2-(4-((7-((3-((2,6-Dimethylphenyl)amino)-1-methyl-1H-pyrazolo[3,4-d]pyrimidin-6-yl)amino)-3,4-dihydroisoquinolin-2 (1H)-yl)methyl)-1H-1,2,3-triazol-1-yl)ethoxy)ethoxy)ethyl)-2-((2-(2,6-dioxopiperidin-3-yl)-1,3-dioxoisoindolin-5-yl)amino)acetamide] | > 10000 nM | 10 to 1000 nM
